# Assay results published in ChEMBL document CHEMBL3044745, “Synthesis and evaluation of biological and nonlinear optical properties of some novel 2,4-disubstituted [1,3]-thiazoles carrying 2-(aryloxymethyl)-phenyl moiety” (2013).
# What was measured:
# Type in all cases: functional
# Bacillus subtilis = experiment: Antibacterial activity against Bacillus subtilis assessed as growth inhibition at 10 ug/disk; details: read-out: IZ
# Aspergillus niger = experiment: Antifungal activity against Aspergillus niger assessed as growth inhibition at 10 ug/disk; details: read-out: IZ
# Escherichia coli = experiment: Antibacterial activity against Escherichia coli assessed as growth inhibition at 10 ug/disk; details: read-out: IZ
# Candida albicans = experiment: Antifungal activity against Candida albicans assessed as growth inhibition at 10 ug/disk; details: read-out: IZ
# Pseudomonas aeruginosa = experiment: Antibacterial activity against Pseudomonas aeruginosa assessed as growth inhibition at 10 ug/disk; details: read-out: IZ
# Rattus norvegicus = experiment: Anti-inflammatory activity in Rattus norvegicus Wistar albino (rat) assessed as inhibition of carrageenan-induced paw edema at 10 mg/kg, po relative to untreated control
# Staphylococcus aureus = experiment: Antibacterial activity against Staphylococcus aureus assessed as growth inhibition at 10 ug/disk; details: read-out: IZ
Structure (SMILES),zone of inhibition at 10 µg/disc (Bacillus subtilis) [mm],zone of inhibition at 10 µg/disc (Aspergillus niger) [mm],zone of inhibition at 10 µg/disc (Escherichia coli) [mm],zone of inhibition at 10 µg/disc (Candida albicans) [mm],zone of inhibition at 10 µg/disc (Pseudomonas aeruginosa) [mm],inhibition in vivo at 10 mg/kg (Rattus norvegicus) [%],zone of inhibition at 10 µg/disc (Staphylococcus aureus) [mm]
Clc1ccc(OCc2ccccc2-c2nc(CN3CCN(C(c4ccccc4)c4ccc(Cl)cc4)CC3)cs2)cc1 (stereo not drawn),26,25,28,28,26,76.4,27
Cc1ccccc1OCc1ccccc1-c1nc(COc2ccc(Cl)cc2)cs1,18,16,22,20,20,65.1,20
Cc1cccc(OCc2ccccc2-c2nc(COc3ccc(Cl)cc3)cs2)c1,22,18,20,22,18,67.7,24
Cc1ccc(OCc2ccccc2-c2nc(COc3ccc(Cl)cc3)cs2)cc1,19,18,24,20,17,68.7,22
Clc1ccc(OCc2csc(-c3ccccc3COc3ccc(Cl)cc3)n2)cc1,27,24,26,26,24,76.4,28
Cc1ccccc1OCc1ccccc1-c1nc(-c2ccc(O)c(C(N)=O)c2)cs1,18,18,20,16,21,40.5,18
Cc1cccc(OCc2ccccc2-c2nc(-c3ccc(O)c(C(N)=O)c3)cs2)c1,22,11,20,18,22,42.9,22
Cc1ccc(OCc2ccccc2-c2nc(-c3ccc(O)c(C(N)=O)c3)cs2)cc1,20,18,19,20,20,46.7,20
NC(=O)c1cc(-c2csc(-c3ccccc3COc3ccc(Cl)cc3)n2)ccc1O,26,25,28,27,24,72.2,28
Cc1ccccc1OCc1ccccc1-c1nc(-c2cc(Cl)sc2S(N)(=O)=O)cs1,20,16,20,18,22,70.1,22
Cc1cccc(OCc2ccccc2-c2nc(-c3cc(Cl)sc3S(N)(=O)=O)cs2)c1,16,18,20,19,18,66.8,18
Cc1ccc(OCc2ccccc2-c2nc(-c3cc(Cl)sc3S(N)(=O)=O)cs2)cc1,18,16,22,20,20,68.7,20
NS(=O)(=O)c1sc(Cl)cc1-c1csc(-c2ccccc2COc2ccc(Cl)cc2)n1,28,24,26,26,24,76.4,28
Cc1ccccc1OCc1ccccc1-c1nc(-c2cccc(Br)c2)cs1,12,11,8,10,8,40.4,10
Cc1cccc(OCc2ccccc2-c2nc(-c3cccc(Br)c3)cs2)c1,10,16,10,14,10,46.7,12
Cc1ccc(OCc2ccccc2-c2nc(-c3cccc(Br)c3)cs2)cc1,12,11,8,14,10,44.5,10

Structure (SMILES),zone of inhibition at 10 µg/disc (Bacillus subtilis) [mm],zone of inhibition at 10 µg/disc (Aspergillus niger) [mm],zone of inhibition at 10 µg/disc (Escherichia coli) [mm],zone of inhibition at 10 µg/disc (Candida albicans) [mm],zone of inhibition at 10 µg/disc (Pseudomonas aeruginosa) [mm],inhibition in vivo at 10 mg/kg (Rattus norvegicus) [%],zone of inhibition at 10 µg/disc (Staphylococcus aureus) [mm]
Clc1ccc(OCc2ccccc2-c2nc(-c3cccc(Br)c3)cs2)cc1,20,18,22,20,18,42.9,22
Cc1ccccc1OCc1ccccc1-c1nc(-c2ccc([N+](=O)[O-])cc2)cs1,12,14,14,12,10,46.7,10
Cc1cccc(OCc2ccccc2-c2nc(-c3ccc([N+](=O)[O-])cc3)cs2)c1,12,8,11,9,10,46.7,8
Cc1ccc(OCc2ccccc2-c2nc(-c3ccc([N+](=O)[O-])cc3)cs2)cc1,10,14,10,11,12,56.9,12
O=[N+]([O-])c1ccc(-c2csc(-c3ccccc3COc3ccc(Cl)cc3)n2)cc1,18,18,22,20,18,67.1,22
Cc1ccccc1OCc1ccccc1-c1nc(CN2CCN(C(c3ccccc3)c3ccccc3)CC2)cs1,23,8,20,9,18,64,23
Cc1cccc(OCc2ccccc2-c2nc(CN3CCN(C(c4ccccc4)c4ccccc4)CC3)cs2)c1,20,11,22,10,20,64.1,19
Cc1ccc(OCc2ccccc2-c2nc(CN3CCN(C(c4ccccc4)c4ccccc4)CC3)cs2)cc1,21,8,18,10,18,63.9,20
Clc1ccc(OCc2ccccc2-c2nc(CN3CCN(C(c4ccccc4)c4ccccc4)CC3)cs2)cc1,26,24,28,28,26,64.9,28
Cc1ccccc1OCc1ccccc1-c1nc(CN2CCN(C(c3ccccc3)c3ccc(Cl)cc3)CC2)cs1 (stereo not drawn),28,20,26,22,24,63.1,28
Cc1cccc(OCc2ccccc2-c2nc(CN3CCN(C(c4ccccc4)c4ccc(Cl)cc4)CC3)cs2)c1 (stereo not drawn),28,18,27,20,25,62.6,28
Cc1ccc(OCc2ccccc2-c2nc(CN3CCN(C(c4ccccc4)c4ccc(Cl)cc4)CC3)cs2)cc1 (stereo not drawn),28,19,28,20,24,56.9,28
O=C(O)c1cn(C2CC2)c2cc(N3CCNCC3)c(F)cc2c1=O [CIPROFLOXACIN],26,,28,,25,,26
O=C(O)Cc1ccccc1Nc1c(Cl)cccc1Cl [DICLOFENAC SODIUM],,,,,,75.9,
OC(Cn1cncn1)(Cn1cncn1)c1ccc(F)cc1F [FLUCONAZOLE],,25,,26,,,
